In ChEMBL document CHEMBL4507268 (2021):

Experiments:
[1] = target: Tyrosine-protein kinase Blk (Homo sapiens) (UniProt P51451); conditions: Compound concentration 1000.0 nM
[2] = target: Casein kinase I isoform alpha (Homo sapiens) (UniProt P48729); conditions: Compound concentration 1000.0 nM
[3] = target: Death-associated protein kinase 2 (Homo sapiens) (UniProt Q9UIK4); conditions: Compound concentration 1000.0 nM
[4] = target: Dual specificity tyrosine-phosphorylation-regulated kinase 1A (Homo sapiens) (UniProt Q13627); conditions: Compound concentration 1000.0 nM
[5] = target: Dual specificity tyrosine-phosphorylation-regulated kinase 1B (Homo sapiens) (UniProt Q9Y463); conditions: Compound concentration 1000.0 nM
[6] = system: Receptor-type tyrosine-protein kinase FLT3 (Homo sapiens), P36888 [D835Y]; conditions: Compound concentration 1000.0 nM
[7] = target: Tyrosine-protein kinase Fyn (Homo sapiens) (UniProt P06241); conditions: Compound concentration 1000.0 nM
[8] = target: Glycogen synthase kinase-3 beta (Homo sapiens) (UniProt P49841); conditions: Compound concentration 1000.0 nM
Chain of Glycogen synthase kinase-3 beta (Homo sapiens) (P49841 whole entry, looked up): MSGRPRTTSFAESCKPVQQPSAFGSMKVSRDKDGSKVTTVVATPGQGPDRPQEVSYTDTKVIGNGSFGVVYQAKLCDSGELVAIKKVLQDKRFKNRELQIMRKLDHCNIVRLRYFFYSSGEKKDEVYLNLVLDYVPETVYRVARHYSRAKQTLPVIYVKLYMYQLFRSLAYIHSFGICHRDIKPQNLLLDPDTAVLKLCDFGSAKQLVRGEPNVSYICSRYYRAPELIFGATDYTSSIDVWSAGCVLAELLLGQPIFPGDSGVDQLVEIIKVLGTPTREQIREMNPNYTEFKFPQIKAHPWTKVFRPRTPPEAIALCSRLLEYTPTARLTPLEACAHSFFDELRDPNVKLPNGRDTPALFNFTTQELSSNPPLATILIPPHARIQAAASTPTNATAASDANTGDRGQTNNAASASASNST

[9] = target: T1, Serine/threonine-protein kinase haspin (Homo sapiens) (UniProt Q8TF76); conditions: Compound concentration 1000.0 nM
T1 sequence (whole entry): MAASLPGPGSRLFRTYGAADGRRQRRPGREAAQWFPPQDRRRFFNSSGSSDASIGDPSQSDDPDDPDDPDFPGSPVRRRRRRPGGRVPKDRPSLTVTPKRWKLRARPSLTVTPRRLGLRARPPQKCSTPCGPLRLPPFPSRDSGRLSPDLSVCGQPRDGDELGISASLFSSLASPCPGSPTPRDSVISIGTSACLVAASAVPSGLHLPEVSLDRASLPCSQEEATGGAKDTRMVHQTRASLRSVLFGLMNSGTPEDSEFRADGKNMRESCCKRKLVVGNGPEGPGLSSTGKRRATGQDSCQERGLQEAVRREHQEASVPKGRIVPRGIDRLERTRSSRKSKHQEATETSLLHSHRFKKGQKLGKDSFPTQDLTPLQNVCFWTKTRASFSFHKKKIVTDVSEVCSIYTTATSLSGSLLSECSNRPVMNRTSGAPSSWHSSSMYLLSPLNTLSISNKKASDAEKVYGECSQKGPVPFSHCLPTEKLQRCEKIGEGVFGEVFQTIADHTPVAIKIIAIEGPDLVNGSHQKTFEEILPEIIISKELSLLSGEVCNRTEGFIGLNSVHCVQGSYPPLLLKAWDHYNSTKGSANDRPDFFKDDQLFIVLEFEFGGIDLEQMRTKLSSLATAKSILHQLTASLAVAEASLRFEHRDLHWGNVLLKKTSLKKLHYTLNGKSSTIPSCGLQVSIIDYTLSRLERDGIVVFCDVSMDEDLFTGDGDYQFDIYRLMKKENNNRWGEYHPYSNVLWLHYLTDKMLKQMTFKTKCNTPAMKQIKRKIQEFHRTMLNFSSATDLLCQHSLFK

[10] = target: Interleukin-1 receptor-associated kinase 3 (Homo sapiens) (UniProt Q9Y616); conditions: Compound concentration 1000.0 nM
[11] = target: T2, Interleukin-1 receptor-associated kinase 4 (Homo sapiens) (UniProt Q9NWZ3); conditions: Compound concentration 1000.0 nM
T2 sequence (whole entry): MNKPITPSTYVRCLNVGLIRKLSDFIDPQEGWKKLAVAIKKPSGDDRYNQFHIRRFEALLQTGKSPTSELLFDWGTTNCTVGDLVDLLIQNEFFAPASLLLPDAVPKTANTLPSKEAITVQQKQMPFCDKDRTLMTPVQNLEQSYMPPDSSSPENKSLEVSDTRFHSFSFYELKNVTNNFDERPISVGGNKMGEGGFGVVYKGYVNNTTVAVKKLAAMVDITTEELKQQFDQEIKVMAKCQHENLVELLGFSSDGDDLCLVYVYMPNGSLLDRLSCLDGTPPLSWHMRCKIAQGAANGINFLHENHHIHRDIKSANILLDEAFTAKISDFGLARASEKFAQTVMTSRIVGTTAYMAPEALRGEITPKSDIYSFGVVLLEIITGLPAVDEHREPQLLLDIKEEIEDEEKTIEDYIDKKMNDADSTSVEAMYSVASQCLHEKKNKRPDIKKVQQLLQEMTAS

[12] = target: Serine/threonine-protein kinase Nek10 (Homo sapiens) (UniProt Q6ZWH5); conditions: Compound concentration 1000.0 nM
Chain of Serine/threonine-protein kinase Nek10 (Homo sapiens) (Q6ZWH5 whole entry): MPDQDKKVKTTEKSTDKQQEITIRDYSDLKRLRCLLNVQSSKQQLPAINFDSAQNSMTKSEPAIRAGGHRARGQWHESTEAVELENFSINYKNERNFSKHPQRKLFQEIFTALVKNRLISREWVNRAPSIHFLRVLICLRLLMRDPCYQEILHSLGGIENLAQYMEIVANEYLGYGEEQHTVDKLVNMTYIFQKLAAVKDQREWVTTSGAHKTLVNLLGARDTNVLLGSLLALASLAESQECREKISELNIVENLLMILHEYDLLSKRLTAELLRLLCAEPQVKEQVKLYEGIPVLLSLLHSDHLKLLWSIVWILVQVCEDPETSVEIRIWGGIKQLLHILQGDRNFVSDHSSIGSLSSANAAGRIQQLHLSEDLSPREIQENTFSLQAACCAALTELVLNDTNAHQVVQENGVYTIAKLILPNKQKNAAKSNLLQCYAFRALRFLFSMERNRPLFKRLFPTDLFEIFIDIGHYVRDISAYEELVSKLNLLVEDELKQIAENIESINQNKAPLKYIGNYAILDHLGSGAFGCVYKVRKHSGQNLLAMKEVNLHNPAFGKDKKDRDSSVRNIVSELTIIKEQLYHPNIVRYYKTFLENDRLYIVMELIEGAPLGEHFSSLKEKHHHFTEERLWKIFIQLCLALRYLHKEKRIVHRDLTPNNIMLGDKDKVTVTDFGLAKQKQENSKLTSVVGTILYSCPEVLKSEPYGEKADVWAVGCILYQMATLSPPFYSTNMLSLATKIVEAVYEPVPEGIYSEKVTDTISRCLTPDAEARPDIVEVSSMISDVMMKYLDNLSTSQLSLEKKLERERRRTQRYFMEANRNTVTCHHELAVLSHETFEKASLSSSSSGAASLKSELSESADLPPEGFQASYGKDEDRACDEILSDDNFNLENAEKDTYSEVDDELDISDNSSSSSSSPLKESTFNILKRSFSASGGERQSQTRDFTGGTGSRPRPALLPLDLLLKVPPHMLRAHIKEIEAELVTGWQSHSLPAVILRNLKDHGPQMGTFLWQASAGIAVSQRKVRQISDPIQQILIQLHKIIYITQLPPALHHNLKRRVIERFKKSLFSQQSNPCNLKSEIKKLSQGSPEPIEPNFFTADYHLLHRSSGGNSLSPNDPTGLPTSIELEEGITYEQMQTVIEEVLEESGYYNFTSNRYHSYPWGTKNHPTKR

[13] = target: Platelet-derived growth factor receptor beta (Homo sapiens) (UniProt P09619); conditions: Compound concentration 1000.0 nM
Chain of Platelet-derived growth factor receptor beta (Homo sapiens) (P09619 whole entry): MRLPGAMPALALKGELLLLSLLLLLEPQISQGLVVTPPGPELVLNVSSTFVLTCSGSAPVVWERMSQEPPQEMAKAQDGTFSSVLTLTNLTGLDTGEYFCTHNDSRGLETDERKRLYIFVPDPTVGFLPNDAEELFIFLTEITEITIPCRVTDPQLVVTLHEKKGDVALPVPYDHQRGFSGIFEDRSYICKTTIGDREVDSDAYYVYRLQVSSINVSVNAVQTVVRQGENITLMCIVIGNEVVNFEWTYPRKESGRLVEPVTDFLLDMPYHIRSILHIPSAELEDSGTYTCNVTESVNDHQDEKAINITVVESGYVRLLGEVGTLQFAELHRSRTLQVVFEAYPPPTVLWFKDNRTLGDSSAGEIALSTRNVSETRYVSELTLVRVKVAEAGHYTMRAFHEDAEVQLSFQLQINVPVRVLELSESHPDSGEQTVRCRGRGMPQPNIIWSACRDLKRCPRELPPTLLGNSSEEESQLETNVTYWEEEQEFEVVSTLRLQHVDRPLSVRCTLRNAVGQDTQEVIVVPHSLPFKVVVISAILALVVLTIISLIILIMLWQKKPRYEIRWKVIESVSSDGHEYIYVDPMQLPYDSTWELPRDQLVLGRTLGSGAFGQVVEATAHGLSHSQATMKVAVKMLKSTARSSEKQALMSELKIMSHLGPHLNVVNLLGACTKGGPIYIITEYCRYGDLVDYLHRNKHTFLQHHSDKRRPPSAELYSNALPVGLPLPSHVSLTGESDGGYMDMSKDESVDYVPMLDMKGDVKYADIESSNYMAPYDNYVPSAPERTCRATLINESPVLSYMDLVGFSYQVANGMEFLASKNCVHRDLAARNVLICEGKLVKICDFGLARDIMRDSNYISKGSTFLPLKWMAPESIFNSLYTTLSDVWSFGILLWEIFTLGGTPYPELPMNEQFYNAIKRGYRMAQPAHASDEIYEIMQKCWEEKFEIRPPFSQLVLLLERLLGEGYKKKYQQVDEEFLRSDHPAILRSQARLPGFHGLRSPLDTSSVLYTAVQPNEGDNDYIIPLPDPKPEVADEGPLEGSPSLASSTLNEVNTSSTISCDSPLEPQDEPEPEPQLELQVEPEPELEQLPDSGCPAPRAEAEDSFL

[14] = target: Cyclin-dependent kinase 14 (Homo sapiens) (UniProt O94921); conditions: Compound concentration 1000.0 nM
Chain of Cyclin-dependent kinase 14 (Homo sapiens) (O94921 whole entry): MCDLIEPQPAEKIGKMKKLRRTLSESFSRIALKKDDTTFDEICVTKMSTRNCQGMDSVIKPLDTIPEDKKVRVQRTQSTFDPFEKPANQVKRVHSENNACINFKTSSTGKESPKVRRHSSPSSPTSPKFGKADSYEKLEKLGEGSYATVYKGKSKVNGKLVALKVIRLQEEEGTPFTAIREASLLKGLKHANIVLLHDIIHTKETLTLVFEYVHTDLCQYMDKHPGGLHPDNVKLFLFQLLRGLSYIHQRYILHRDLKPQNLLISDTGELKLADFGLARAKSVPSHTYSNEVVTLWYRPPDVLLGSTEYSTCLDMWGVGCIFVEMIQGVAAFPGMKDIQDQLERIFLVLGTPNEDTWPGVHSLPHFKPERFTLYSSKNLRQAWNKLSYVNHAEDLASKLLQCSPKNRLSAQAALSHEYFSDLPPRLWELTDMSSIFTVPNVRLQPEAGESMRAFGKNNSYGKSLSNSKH

[15] = target: Serine/threonine-protein kinase pim-3 (Homo sapiens) (UniProt Q86V86); conditions: Compound concentration 1000.0 nM
[16] = target: Uncharacterized serine/threonine-protein kinase SBK3 (Homo sapiens) (UniProt P0C264); conditions: Compound concentration 1000.0 nM
Chain of Uncharacterized serine/threonine-protein kinase SBK3 (Homo sapiens) (P0C264 whole entry): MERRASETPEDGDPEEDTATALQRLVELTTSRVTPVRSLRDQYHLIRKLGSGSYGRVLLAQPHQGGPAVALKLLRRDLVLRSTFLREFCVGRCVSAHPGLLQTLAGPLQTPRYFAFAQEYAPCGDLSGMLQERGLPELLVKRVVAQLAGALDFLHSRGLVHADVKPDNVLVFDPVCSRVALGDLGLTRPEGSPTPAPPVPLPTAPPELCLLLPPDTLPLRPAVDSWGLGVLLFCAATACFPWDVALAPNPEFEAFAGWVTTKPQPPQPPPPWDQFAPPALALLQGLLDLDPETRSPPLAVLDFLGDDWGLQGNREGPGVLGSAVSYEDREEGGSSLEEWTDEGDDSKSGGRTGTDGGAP

[17] = target: T3, Serine/threonine-protein kinase tousled-like 1 (Homo sapiens) (UniProt Q9UKI8); conditions: Compound concentration 1000.0 nM
T3 sequence (whole entry): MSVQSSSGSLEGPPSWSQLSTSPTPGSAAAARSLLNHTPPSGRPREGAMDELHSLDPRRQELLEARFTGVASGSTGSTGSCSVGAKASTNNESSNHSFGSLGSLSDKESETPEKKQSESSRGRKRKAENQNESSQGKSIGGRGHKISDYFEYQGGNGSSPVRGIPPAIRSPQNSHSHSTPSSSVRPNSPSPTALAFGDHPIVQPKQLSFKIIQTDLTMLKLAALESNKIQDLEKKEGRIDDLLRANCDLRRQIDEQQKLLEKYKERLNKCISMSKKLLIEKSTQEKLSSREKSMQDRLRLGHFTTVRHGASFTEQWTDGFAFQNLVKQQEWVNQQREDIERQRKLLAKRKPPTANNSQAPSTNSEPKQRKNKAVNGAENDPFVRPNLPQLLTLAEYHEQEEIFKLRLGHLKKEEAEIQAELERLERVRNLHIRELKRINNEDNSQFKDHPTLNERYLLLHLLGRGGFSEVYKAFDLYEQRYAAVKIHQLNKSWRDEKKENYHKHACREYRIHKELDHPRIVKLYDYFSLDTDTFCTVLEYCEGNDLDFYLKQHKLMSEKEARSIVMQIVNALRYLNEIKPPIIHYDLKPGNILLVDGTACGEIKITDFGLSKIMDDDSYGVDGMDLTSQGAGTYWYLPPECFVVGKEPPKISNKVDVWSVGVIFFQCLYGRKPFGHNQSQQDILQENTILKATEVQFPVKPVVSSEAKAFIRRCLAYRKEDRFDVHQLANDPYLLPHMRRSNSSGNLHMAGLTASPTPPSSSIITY

[18] = target: Muscarinic acetylcholine receptor M1 (Homo sapiens) (UniProt P11229); conditions: Compound concentration 10.0 uM
Chain of Muscarinic acetylcholine receptor M1 (Homo sapiens) (P11229 whole entry): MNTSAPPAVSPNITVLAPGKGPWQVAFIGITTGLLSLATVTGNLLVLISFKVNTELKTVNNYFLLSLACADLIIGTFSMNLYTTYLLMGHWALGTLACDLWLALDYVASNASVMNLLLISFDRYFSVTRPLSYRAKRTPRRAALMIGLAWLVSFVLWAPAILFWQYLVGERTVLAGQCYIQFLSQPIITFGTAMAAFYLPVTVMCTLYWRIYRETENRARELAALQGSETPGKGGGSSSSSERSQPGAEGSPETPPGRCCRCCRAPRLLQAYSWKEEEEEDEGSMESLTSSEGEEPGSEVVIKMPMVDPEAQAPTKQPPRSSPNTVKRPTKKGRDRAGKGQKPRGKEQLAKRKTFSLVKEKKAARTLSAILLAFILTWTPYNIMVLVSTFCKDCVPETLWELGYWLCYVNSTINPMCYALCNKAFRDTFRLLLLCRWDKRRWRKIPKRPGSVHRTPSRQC

Chain of Casein kinase I isoform alpha (Homo sapiens) (P48729 2-337 limits assumed): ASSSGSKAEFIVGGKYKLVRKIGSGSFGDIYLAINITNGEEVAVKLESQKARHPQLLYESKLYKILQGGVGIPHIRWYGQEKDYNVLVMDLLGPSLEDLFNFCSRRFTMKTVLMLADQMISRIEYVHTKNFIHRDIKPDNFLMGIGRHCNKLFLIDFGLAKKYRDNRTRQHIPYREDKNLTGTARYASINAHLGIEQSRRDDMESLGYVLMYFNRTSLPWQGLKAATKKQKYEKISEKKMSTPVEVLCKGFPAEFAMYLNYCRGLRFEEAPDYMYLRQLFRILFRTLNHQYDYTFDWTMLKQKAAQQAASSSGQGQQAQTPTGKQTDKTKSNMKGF
Chain of Death-associated protein kinase 2 (Homo sapiens) (Q9UIK4 whole entry, looked up): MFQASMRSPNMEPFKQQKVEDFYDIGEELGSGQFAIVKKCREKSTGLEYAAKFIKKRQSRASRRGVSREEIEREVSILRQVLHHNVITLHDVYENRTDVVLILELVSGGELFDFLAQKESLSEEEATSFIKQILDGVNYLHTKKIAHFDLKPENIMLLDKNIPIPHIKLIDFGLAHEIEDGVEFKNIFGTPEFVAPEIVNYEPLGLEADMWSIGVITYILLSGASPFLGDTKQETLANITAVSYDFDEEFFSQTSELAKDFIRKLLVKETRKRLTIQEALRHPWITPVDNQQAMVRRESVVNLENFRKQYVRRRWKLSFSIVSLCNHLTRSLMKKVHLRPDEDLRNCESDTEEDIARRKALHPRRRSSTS

Cc1nc(C2CCN(C(=O)c3ccc(OC(F)(F)F)cc3N)CC2)c2ncc(N3CCN(C)CC3)cc2n1 [BAY-693]
inactive: residual activity [1] 97% | residual activity [2] 100% | residual activity [3] 100% | residual activity [4] 100% | residual activity [5] 61% | residual activity [6] 97% | residual activity [7] 96% | residual activity [8] 100% | residual activity [9] 100% | residual activity [10] 99% | residual activity [11] 90% | residual activity [12] 100% | residual activity [13] 95% | residual activity [14] 100% | residual activity [15] 100% | residual activity [16] 77% | residual activity [17] 100% | inhibition [18] 2.76%

CN1CCN(c2cnc3c(C4CCN(C(=O)c5ccc(OC(F)(F)F)cc5N)CC4)ncnc3c2)CC1 [BAY-885]
inactive: residual activity [1] 91% | residual activity [2] 91% | residual activity [3] 90% | residual activity [4] 100% | residual activity [5] 54% | residual activity [6] 100% | residual activity [7] 100% | residual activity [8] 100% | residual activity [9] 100% | residual activity [10] 100% | residual activity [11] 90% | residual activity [12] 100% | residual activity [13] 95% | residual activity [14] 100% | residual activity [15] 100% | residual activity [16] 72% | residual activity [17] 100% | inhibition [18] 3.17%
